{
  "source": "paper PMC7513592",
  "about": "(RSC Medicinal Chemistry, 2020)",
  "key": {"[1]": {"system": "selected targets (off-targets predicted with PPB2)", "assay": "In vitro polypharmacology for selected off-targets (Eurofins Cerep)", "description": "Fig. 8 In vitro polypharmacology for selected targets of 1 (blue diamonds) and 39 (red diamonds). Data are shown for each replicate (n = 2). The data for 1 were extracted from [ref. 17]. The experiments were conducted by Eurofins Cerep SA, France.\nWe also characterized the off-targets predicted to be potentially problematic for both compounds using the web-based target prediction tool PPB2.[41]"}, "[2]": {"system": "SKOV3, T47D, MCF-7, MDA-MB-231, HEK293 and HEK-hTRPV6 cells", "assay": "Antiproliferative activity, XTT, all six cell lines", "format": "cell-based, human", "settings": "6 days, up to 100 µM", "excerpt": "Here, we compared the effects of 1 and 39 on SKOV3 and T47D, as well as on MCF-7 and MDA-MB-231 as two additional breast cancer cell lines with low levels of TRPV6.[13],[44] Previous studies have shown that RNA silencing (siRNA) of TRPV6 reduces T47D cell proliferation.[11],[13]\nNote that HEK-hTRPV6 was more susceptible to 1 toxicity than HEK293 wt cells, which might be related to the fact that HEK-hTRPV6 overexpressing cells proliferate faster than HEK293 wt cells in a Ca^2+-dependent manner (Table S3 ^†).[46] […] This highlights the need for future studies to uncover the precise role of TRPV6 in cancer progression.\n12. Antiproliferative activity\nUnless specified cell culture reagents were obtained from Gibco, Life Technology, Switzerland. MCF -7 (human mammary adenocarcinoma), MDA-MB-231 (human mammary adenocarcinoma) were obtained from the ATCC cell bank. T47D (human mammary ductal carcinoma) cell line was obtained from NIH cell collection. These cells were grown in RPMI medium complemented with 10% FBS, 2mM L-Glutamine, 100 U/ml Penicillin and 100 μg/ml Streptomycin (Sigma) and 1% non-essential amino acids (Bioconcept, Switzerland). HEK293 (human embryonic kidney) and SKOV-3 (human ovary adenocarcinoma) cell lines were obtained from the ATCC cell bank. HEK-hTRPV6 and HEK293 and SKOV-3 were grown in DMEM medium supplemented with 10% FBS, 2mM L-Glutamine, 100 U/ml Penicillin and 100 μg/ml Streptomycin (Sigma) and 1% non-essential amino acids (Bioconcept, Switzerland).\nThe XTT assay was used to evaluate cell proliferation. Cells were plated at a density of 5 x 10^3 cells/well in 96-well plates and were incubated at 37 °C for 24 h. On the following day, the medium was carefully […]\nDoxorubicin (10 µM) and DMSO (0.01 %) were used as positive and negative controls, respectively. All the treatments used the original cell medium (RPMI or DMEM), depending on the cell line. Cells were incubated for a total of 6 days at 37 °C with the medium (treatment and controls) being replaced by a freshly prepared solution every 48 h. Then, 25 μL of XTT (with 1.25 % of PMS) was added to each well and incubated at 37 °C for 2 h. Subsequently, the absorbance was read at 650 nm and subtracted from the […]\nThe resulting subtracted absorbance for each compound concentration (At) was expressed as a percentage of viable cells relative to the negative control (Ab), and the percentage of viable cells was plotted and the inhibition curves obtained by non-linear regression using the built-in log(inhibitor) vs. response-variable slope function (GraphPad® Prism, v. 5.0, San Diego, CA, US).\n. Data shown are mean ± SEM (n =\n3/concentration) of at least 3 independent experiments. ND = not determined, no inhibition of cell"}},
  "note": "“Also recorded” adds a separate entry of the source. Like-named read-outs stand apart in the source and are kept apart here.",
  "data": [
    {"smiles": "O=c1ccc(CN2CCN([C@H]3CC[C@@](O)(c4cccc(C(F)(F)F)c4)CC3)CC2)c[nH]1", "note": "[compound 39]", "values": [
      {"measurement": "off-target effects", "setting": "[1]", "result": "did not show any significant off-target effects"},
      {"measurement": "off-target effects", "setting": "[1]; listed as 3OG", "result": "very low off-target effects"},
      {"measurement": "effect on cell proliferation / cellular toxicity", "setting": "[2]", "result": "did not observe any significant decrease in proliferation; also recorded: does not display any measurable cellular toxicity"},
      {"measurement": "effect on cell proliferation / cellular toxicity", "setting": "[2]; listed as 3OG", "result": "does not exhibit any non-specific toxicity effects"}
    ]}
  ]
}
